Laboratory results published in US20030027981A1, “Urokinase-type plasminogen activator receptor” (priority 1989, published 2003).

System: HT-1080 cells
Assay: Formation of cell-bound plasmin on HT-1080 cells in serum culture (tranexamic acid eluate, thioesterase assay)
Format: cell-based, human
Settings: for Bound plasmin activity: 2 h, serum medium, all with Plg 40 μg/ml, aprotinin, anti-Plg-1, TA (100 μM) also with anti-PAI-1 10 μg/ml; for activity at 10 µM / activity at 100 µM: Homo sapiens, HT-1080; for activity at 10 µM: Plg 40 μg/ml + TA 10 μM; for activity at 100 µM: Plg 40 μg/ml + TA 100 μM
Description: Human fibrosarcoma cells (HT-1080, CCL 121) were obtained from the American Type Culture Collection, Rockville, Md. Confluent cell layers were grown in plastic Linbro wells (2 cm^2; Flow Laboratories) in Eagle's minimal essential medium (MEM) supplemented with 10% heat-inactivated (56° C. for 60 minutes) fetal calf serum (Gibco), 100 IU/ml penicillin and 50 μg/ml streptomycin. After reaching confluence, the cells were rinsed three times with MEM containing 0.2% bovine serum albumin (BSA), then changed to either serum-free medium (0.5 ml) or medium containing 10% heat-inactivated and plasminogen-depleted (i.e. absorbed with lysine-Sepharose; Pharmacia, Uppsala, Sweden) fetal calf serum as indicated in the Examples.
Human plasminogen (with glutamic acid N-terminal) was prepared by affinity chromatography on lysine-Sepharose (Deutsch, D. G., and E. T. Mertz, “Plasminogen: Purification from human plasma by affinity chromatography”, Science 170: 1095-1097, 1970) from freshly separated, unfrozen human plasma pretreated with 10 μM p-nitrophenyl guanidinobenzoate, 1 mM phenylmethylsulfonylfluoride and 0.1 μg/ml of an anti-catalytic murine monoclonal IgG antibody to human t-PA (ESP-2; see MacGregor, I. R. et al., “Characterization of epitopes on human tissue plasminogen activator recognised by a group of monoclonal antibodies”, Thromb. Haem. 53: 45-50, 1985); American Diagnostica, Greenwich, Conn.).
Res. 46: 755-766, 1987) titration equivalent of 3.6 IU u-PA/ml; an anti-catalytic murine monoclonal IgG antibody to human u-PA (clone 2 (10 μg/ml) in Nielsen, L. S. et al., “Enzyme-linked immunosorbent assay for human urokinase-type plasminogen activators and its proenzyme using a combination of monoclonal and polyclonal antibodies”, J. Immunoassay 7: 209-228, 1986); the anti-catalytic monoclonal antibody to human t-PA (10 μg/ml); a neutralising murine monoclonal IgG antibody to human PAI-1 (Nielsen, L. S. et al., “Monoclonal antibodies to human 54,000 molecular weight plasminogen activator inhibitor from fibrosarcoma cells—inhibitor neutralization and one-step affinity purification”, Thromb. Haem. 55: 206-212, 1986) (10 μg/ml) and diisopropyl fluorophosphate (DFP)-inactivated u-PA (0-10 μg/ml).
The plasmin activity of culture supernatant samples (50 μl) was assayed directly by incubation with the thioester substrate solution above (200 μl) for 30 minutes (serum-free supernatants) or 3 hours (serum-containing supernatants) at 37° C. An estimate of the amount of active plasmin present was made from calibration curves using human plasmin dilutions in serum-free medium covering the appropriate ranges of activity.
Plasmin bound to the cell layer was recovered and assayed as follows. After harvest of culture medium, the cells were rinsed three times with PBS (plasmin assays of further rinses were negative); then the bound plasmin was specifically eluted (Miles, L. A., and E. F. Plow, “Binding and activation of plasminogen on the platelet surface”, J. Biol. Chem. 260: 4303-4311, 1985) with a solution of 1 mM tranexamic acid in the same rinsing solution (150 μl/well). Plasmin activity was assayed in eluate samples (50 μl) as above with an incubation time of 3 hours at 37° C. Tranexamic acid at 1 mM had no effect on the thioesterase activity of plasmin in these assays.
The following additions were made to cell layers growing in MEM medium (0.5 ml) containing 10% heat-inactivated and plasminogen-depleted fetal calf serum: native human plasminogen (Plg, 40 μg/ml); anti-catalytic monoclonal antibody to human u-PA (10 μg/ml); anti-catalytic monoclonal antibody to human t-PA (10 μg/ml); PAI-2 (titration equivalent of 3.6 UI u-PA/ml); anti-catalytic monoclonal antibody to human plasmin (20 μg/ml); aprotinin (200 KIU/ml); tranexamic acid (TA, as shown). The cultures were incubated for the times shown before assay of cell-bound plasmin. The incubation with plasminogen was used as the 100% control for bound plasmin. […]

[1] = 3 h, serum medium with Plg 40 μg/ml (=100%), anti-u-PA 10 μg/ml, anti-t-PA 10 μg/ml, PAI-2 equiv. 3.6 IU u-PA/ml, aprotinin 200 KIU/ml, anti-Plg-1 20 μg/ml
[2] = 17 h, serum medium with Plg 40 μg/ml (=100%), additions as b555

Molecule | Bound plasmin activity [ng] | activity at 10 µM (3 h) [%] | activity at 100 µM (3 h) [%] | activity at 10 µM (17 h) [%] | activity at 100 µM (17 h) [%] | Plasmin recovered from the cell layer (40 μg/ml human plasminogen in 0.5 ml serum medium, 2 cm^2 cell layer, 3 hours 37° C.) [ng] | Plasmin measurable in the medium (40 μg/ml human plasminogen in 0.5 ml serum medium, 3 hours 37° C.) [ng] | Bound plasmin activity (%) [1] [%] | Bound plasmin activity (%) [2] [%] | Bound plasmin activity (%) (cells preincubated 1 h with inhibitor (anti-u-PA 10 μg/ml, PAI-2 equiv. 3.6 IU u-PA/ml), rinsed, then 3 h with Plg 40 μg/ml in serum medium)
NC[C@H]1CC[C@H](C(=O)O)CC1 [TA, tranexamic acid] | 0 | 9.7 | 2.2 | 34 | 13 |  |  |  |  | 
Plg: native human plasminogen (glutamic acid N-terminal) purified from human plasma on lysine-Sepharose | 12 |  |  |  |  | 28 | 10 | 100 | 100 | 
aprotinin | 3.3 |  |  |  |  |  |  | 13.2 | 7.8 | 
PAI-2: human type-2 plasminogen activator inhibitor purified from U937 cells (protein, UniProt P05120 1-415, looked up) Plasminogen activator …: MEDLCVANTLFALNLFKHLAKASPTQNLFLSPWSISSTMAMVYMGSRGSTEDQMAKVLQFNEVGANAVTPMTPENFTSCGFMQQIQKGSYPDAILQAQAADKIHSSFRSLSSAINASTGNYLLESVNKLFGEKSASFREEYIRLCQKYYSSEPQAVDFLECAEEARKKINSWVKTQTKGKIPNLLPEGSVDGDTRMVLVNAVYFKGKWKTPFEKKLNGLYPFRVNSAQRTPVQMMYLREKLNIGYIEDLKAQILELPYAGDVSMFLLLPDEIADVSTGLELLESEITYDKLNKWTSKDKMAEDEVEVYIPQFKLEEHYELRSILRSMGMEDAFNKGRANFSGMSERNDLFLSEVFHQAMVDVNEEGTEAAAGTGGVMTGRTGHGGPQFVADHPFLFLIMHKITNCILFFGRFSSP |  |  |  |  |  |  |  | 48 | 19 | 54
